{
  "source": "patent US11730826B2",
  "about": "“Amphiphilic nanoparticles for delivery of CRISPR based therapy” (Massachusetts Institute of Technology, priority 2016, dated 2023)",
  "key": {"5′-GMP": {"test_system": "5′-GMP", "test": "5′-GMP binding with platinum species by 1HNMR", "method": "The binding kinetics of 5′-GMP to each platinum species were determined by measuring the relative amounts of free and Pt-bound 5′-GMP at each time point, integrating the ratio of the ^1HNMR peaks at 8.5 ppm to 8.09 ppm."}, "BCL-2 siRNA [1]": {"test_system": "BCL-2 siRNA", "test": "siRNA binding with platinum species by MALDI-TOF-MS", "settings": "10-fold excess of platinum species", "procedure": "A single-stranded siRNA (UCAGGUACUCAGUCAUCCACATT) was mixed with OxaPt(II) at a molar ratio of 1:10 in RNAase free water (RNA final concentration: 50 μM; Pt final concentration: 500 μM; total volume: 100 μL). The reaction mixture was placed in a 37° C. incubator and 10 μL of sample were removed at various time points to obtain MALDI-TOF-MS spectra (positive model). Analogous methods were employed to obtain spectra of the reaction products of siRNA with OxaPt(IV), CisPt(II) and CisPt(IV)."}, "SMAD4 sgRNA": {"test_system": "SMAD4 sgRNA", "test": "Activity of sgRNA after incubation with small molecule anticancer agents (WB in Cas9-expressing SKOV3 cells)", "assay_type": "cell-based, human", "settings": "for suppression of SMAD4 protein by sgRNA after coincubation: 12 h of coincubation, effective = levels <30% of baseline; for effect of co-incubation on SMAD4 sgRNA suppression: up to 24 h prior to transfection", "procedure": "Activity of sgRNA after incubation with various small molecule anticancer agents: To determine the effects of platination or alkylation of sgRNA on silencing efficiency, SMAD4 sgRNA was first pre-incubated with various small molecules including Pt(II), Pt(IV)-COOH, doxorubicin, gemcitabine, camptothecin, or melphalan for either 12 h or 24 h, at 37° C., and at a drug to sgRNA molar ratio of 10:1 in RNase free water. The sgRNA was then purified by […] (Mw=3 kDa) and quantified by Nanodrop. The RNAi-MAX (Invitrogen, Thermo-fisher, USA) was utilized to transfect the reacted sgRNA (10 nM) into Cas9-expressing SKOV3 cells in 6-well plates. After 72 h, protein was recovered from cell lysates and analyzed by WB to quantify SMAD4 and GAPDH (product of a house-keeping gene; control) levels with respect to those of untreated cells. In addition, to compare the effects of Pt(II) and Pt(IV)-COOH interference with sgRNA-mediated recognition and target gene silencing by Cas9, various incubation periods were examined (i.e. 3, 6, and 9 h)."}, "s-SMAD4 [2]": {"test_system": "s-SMAD4", "test": "Reactions of sgRNA with anticancer agents by MALDI/TOF MS", "settings": "for time at which RNA adducts were formed: excess agent; for adducts in the RNA macromolecule: 24 h of incubation", "procedure": "Determination of the reactions of sgRNA with anticancer agents by MALDI/TOF MS: A 20-mer of RNA comprising the seed region of SMAD4 sgRNA (s-SMAD4) was mixed with Pt(II), Pt(IV)-COOH, doxorubicin, gemcitabine, camptothecin or melphalan at a molar ratio of 1:10 in RNase free water (RNA final concentration (10 μM); small molecule (100 μM)). The reaction mixture was shaken in a 37° C. incubator for a prescribed time interval (30 min, 1 h, 3 h, 6 h, 9 h, 12 h, or 24 h); and, 10 μL of each solution was analyzed by MALDI/TOF MS (positive mode), employing hydroxipicolinic acid as the matrix."}, "s-SMAD4 [3]": {"test_system": "s-SMAD4", "test": "Kinetics of Pt-RNA adduct formation by AAS"}, "s-SMAD4 [4]": {"test_system": "s-SMAD4", "test": "PicoGreen based melting temperature assay of s-SMAD4/ss-DNA heterodimer", "procedure": "The Tm of the unreacted 20-mer and the ss-DNA (41° C.) resembled the calculated Tm of the heterodimer of the native SMAD4 sgRNA with DNA (43° C.)."}, "Cytoplasmic RNA": {"test_system": "Cytoplasmic RNA", "settings": "upon intracellular uptake; cited from earlier work"}, "BCL-2 siRNA [5]": {"test_system": "BCL-2 siRNA", "test": "Silencing activity of BCL-2 siRNA preincubated with platinum species (qRT-PCR)", "assay_type": "cell-based", "settings": "MCF-7 cells, RT-qPCR 48 h after transfection, pre-incubation 1 vs. 12 h", "procedure": "48 hours after transfection, total RNA was isolated using an RNeasy mini-kit (Qiagen, Germantown, Md.) and quantified by NanoDrop. 300 ng of mRNA were subsequently subjected to qRT-PCR analysis, targeting BCL-2 and glyceraldehyde 3-phosphate dehydrogenase (GAPDH) by using the SYBR Premix Ex (Takara, USA) and by using an Applied Biosystems StepOne Real-Time PCR System. Relative gene expression values were determined by the […] using StepOne Software v2.1 (Applied Biosystems). Data are presented as fold differences in […] normalized to GAPDH (house-keeping gene used as endogenous reference), employing a standard curve, and are reported relative to untreated (control) cells. The sequence of the primers used for BCL-2 and GAPDH are as follows: BCL-2 forward—5-[…]-3; Bcl-2 reverse—5-[…]-3; GAPDH forward—5-[…]-3; and GAPDH reverse primer—5-[…]-3 (Integrated DNA Technology. IW, USA). The specificity of each set of primers was verified by melting curve analysis."}},
  "data": [
    {"compound": "N.N.[Cl][Pt][Cl]", "note": "[CisPt(II), cisplatin]", "values": [
      {"measurement": "formation of Pt(NH3)2(5′-GMP)2 adducts", "setting": "5′-GMP; data not shown", "value": "rapid formation and time dependent increases"},
      {"measurement": "earliest time Pt-siRNA adducts detected", "setting": "BCL-2 siRNA [1]", "value": "≤ 30", "unit": "m"},
      {"measurement": "incubation time beyond which sgRNA was unable to prevent protein expression", "setting": "SMAD4 sgRNA", "value": "> 3", "unit": "h"},
      {"measurement": "suppression of SMAD4 protein by sgRNA after coincubation", "setting": "SMAD4 sgRNA", "value": "unable to effectively suppress expression of SMAD4 protein"},
      {"measurement": "time at which RNA adducts were formed", "setting": "s-SMAD4 [2]; aqueous solution, 37° C.", "value": 30, "unit": "min"},
      {"measurement": "Pt atoms bound per RNA macromolecule", "setting": "s-SMAD4 [3]", "value": "up to 6"},
      {"measurement": "RNA platinated", "setting": "s-SMAD4 [3]; incubated for 1 h with >10 μM", "value": "> 50", "unit": "%"},
      {"measurement": "apparent second-order rate constant", "setting": "s-SMAD4 [3]; pseudo-first order kinetics", "value": "> 1e+07", "unit": "M⁻¹ s⁻¹"},
      {"measurement": "heterodimerization of pretreated s-SMAD4 with ss-DNA", "setting": "s-SMAD4 [4]", "value": "could not heterodimerize with ss-DNA at any temperature"},
      {"measurement": "concentrations of Pt-RNA adducts relative to Pt-DNA adducts", "setting": "Cytoplasmic RNA", "value": "5-6 times"}
    ]},
    {"compound": "O=C1[O][Pt]2([NH][C@@H]3CCCC[C@H]3[NH]2)[O]C1=O", "note": "[OxaPt(II), Oxaliplatin]", "values": [
      {"measurement": "DACHPt(5′-GMP)2 adducts as share of the total 5′-GMP pool", "setting": "5′-GMP; over the first 6 h, 10 mM 5′-GMP, 5 mM Pt, 37° C.", "value": "> 40", "unit": "%"},
      {"measurement": "earliest time Pt-siRNA adducts detected", "setting": "BCL-2 siRNA [1]", "value": 1, "unit": "h"},
      {"measurement": "effect of incubation with siRNA on silencing efficiency", "setting": "BCL-2 siRNA [5]", "value": "concentration and time-dependent decrease in silencing efficiency"}
    ]},
    {"compound": "CC[C@@]1(O)C(=O)OCc2c1cc1n(c2=O)Cc2cc3ccccc3nc2-1", "note": "[camptothecin]", "values": [
      {"measurement": "effect of co-incubation on SMAD4 sgRNA suppression", "setting": "SMAD4 sgRNA", "value": "did not alter the ability of SMAD4 sgRNA to effectively suppress expression levels"},
      {"measurement": "adducts in the RNA macromolecule", "setting": "s-SMAD4 [2]", "value": "no adducts were detected"}
    ]},
    {"compound": "COc1cccc2c1C(=O)c1c(O)c3c(c(O)c1C2=O)C[C@@](O)(C(=O)CO)C[C@@H]3O[C@H]1C[C@H](N)[C@H](O)[C@H](C)O1", "note": "[doxorubicin]", "values": [
      {"measurement": "effect of co-incubation on SMAD4 sgRNA suppression", "setting": "SMAD4 sgRNA", "value": "did not alter the ability of SMAD4 sgRNA to effectively suppress expression levels"},
      {"measurement": "adducts in the RNA macromolecule", "setting": "s-SMAD4 [2]", "value": "physical association multimers in non-covalent complexes with RNA"}
    ]},
    {"compound": "Nc1ccn([C@@H]2O[C@H](CO)[C@@H](O)C2(F)F)c(=O)n1", "note": "[gemcitabine]", "values": [
      {"measurement": "effect of co-incubation on SMAD4 sgRNA suppression", "setting": "SMAD4 sgRNA", "value": "did not alter the ability of SMAD4 sgRNA to effectively suppress expression levels"},
      {"measurement": "adducts in the RNA macromolecule", "setting": "s-SMAD4 [2]", "value": "no adducts were detected"}
    ]},
    {"compound": "N[C@@H](Cc1ccc(N(CCCl)CCCl)cc1)C(=O)O", "note": "[melphalan]", "values": [
      {"measurement": "incubation time beyond which sgRNA was unable to prevent protein expression", "setting": "SMAD4 sgRNA", "value": "> 6", "unit": "h"},
      {"measurement": "suppression of SMAD4 protein by sgRNA after coincubation", "setting": "SMAD4 sgRNA", "value": "unable to effectively suppress expression of SMAD4 protein"},
      {"measurement": "time at which RNA adducts were formed", "setting": "s-SMAD4 [2]", "value": 60, "unit": "min"}
    ]}
  ]
}
